Source: PubChem BioAssay (NCI)
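1) Cells in 96-well plates. 2) Compound, 48 h, 5 concentrations. 3) Linear interpolation between surrounding doses. 4) Unreached endpoint = highest concentration. GI50: concentration for 50% inhibition of growth. TGI: concentration producing complete growth inhibition.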

How the values were obtained:
Assay in all cases: NCI tumour cell line growth inhibition, 48 h
SW-620 colon = test system: SW-620 colon
786-0 renal = test system: 786-0 renal
LOX IMVI melanoma = test system: LOX IMVI melanoma
HOP-92 NSCLC = test system: HOP-92 NSCLC
OVCAR-3 ovarian = test system: OVCAR-3 ovarian
SNB-75 CNS = test system: SNB-75 CNS
A498 renal = test system: A498 renal
UO-31 renal = test system: UO-31 renal
CCRF-CEM leukemia = test system: CCRF-CEM leukemia
NCI/ADR-RES ovarian = test system: NCI/ADR-RES ovarian
HL-60(TB) leukemia = test system: HL-60(TB) leukemia
NCI-H23 lung = test system: NCI-H23 lung
ACHN renal = test system: ACHN renal
SF-539 CNS = test system: SF-539 CNS
OVCAR-4 ovarian = test system: OVCAR-4 ovarian
SK-OV-3 ovarian = test system: SK-OV-3 ovarian
IGROV1 ovarian = test system: IGROV1 ovarian
SF-295 CNS = test system: SF-295 CNS
SK-MEL-28 melanoma = test system: SK-MEL-28 melanoma
SNB-19 CNS = test system: SNB-19 CNS
HCT-116 colon = test system: HCT-116 colon
SF-268 CNS = test system: SF-268 CNS
T-47D breast = test system: T-47D breast
SK-MEL-5 melanoma = test system: SK-MEL-5 melanoma
MDA-MB-435 = test system: MDA-MB-435
MCF7 breast = test system: MCF7 breast
MOLT-4 leukemia = test system: MOLT-4 leukemia
PC-3 prostate = test system: PC-3 prostate
UACC-62 melanoma = test system: UACC-62 melanoma

Cc1ccccc1[C@H]1C(C(=O)c2ccc(Cl)cc2)C2(N[C@@H]1c1ccccc1)C(=O)Nc1ccc(Br)cc12 (stereo partly drawn)
GI50 (SW-620 colon): 5.9 µM | TGI (SW-620 colon): 11.7 µM | GI50 (786-0 renal): 5.9 µM | TGI (786-0 renal): 10.9 µM | GI50 (LOX IMVI melanoma): 5.22 µM | TGI (LOX IMVI melanoma): 9.99 µM | GI50 (HOP-92 NSCLC): 2.99 µM | TGI (HOP-92 NSCLC): 7.93 µM | GI50 (OVCAR-3 ovarian): 3.77 µM | TGI (OVCAR-3 ovarian): 8.32 µM | GI50 (SNB-75 CNS): 2.7 µM | TGI (SNB-75 CNS): 9.33 µM | GI50 (A498 renal): 6.11 µM | TGI (A498 renal): 11.7 µM | GI50 (UO-31 renal): 4.41 µM | TGI (UO-31 renal): 8.94 µM | GI50 (CCRF-CEM leukemia): 7.4 µM | TGI (CCRF-CEM leukemia): 22.4 µM | GI50 (NCI/ADR-RES ovarian): 5.54 µM | TGI (NCI/ADR-RES ovarian): 12.1 µM | GI50 (HL-60(TB) leukemia): 9.02 µM | TGI (HL-60(TB) leukemia): 28.7 µM | GI50 (NCI-H23 lung): 5.39 µM | TGI (NCI-H23 lung): 10.9 µM | GI50 (ACHN renal): 5.76 µM | TGI (ACHN renal): 10.7 µM | GI50 (SF-539 CNS): 5.99 µM | TGI (SF-539 CNS): 11.2 µM | GI50 (OVCAR-4 ovarian): 4.72 µM | TGI (OVCAR-4 ovarian): 10.5 µM | GI50 (SK-OV-3 ovarian): 6.75 µM | TGI (SK-OV-3 ovarian): 15.9 µM | GI50 (IGROV1 ovarian): 4.85 µM | TGI (IGROV1 ovarian): 10.4 µM | GI50 (SF-295 CNS): 4.77 µM | TGI (SF-295 CNS): 9.52 µM | GI50 (SK-MEL-28 melanoma): 5.78 µM | TGI (SK-MEL-28 melanoma): 10.7 µM | GI50 (SNB-19 CNS): 6.08 µM | TGI (SNB-19 CNS): 12.1 µM | GI50 (HCT-116 colon): 5.26 µM | TGI (HCT-116 colon): 10.2 µM | GI50 (SF-268 CNS): 4.74 µM | TGI (SF-268 CNS): 10.2 µM | GI50 (T-47D breast): 4.09 µM | TGI (T-47D breast): 9.42 µM | GI50 (SK-MEL-5 melanoma): 5.83 µM | TGI (SK-MEL-5 melanoma): 10.8 µM | GI50 (MDA-MB-435): 5.61 µM | TGI (MDA-MB-435): 10.6 µM | GI50 (MCF7 breast): 4.33 µM | TGI (MCF7 breast): 10.2 µM | GI50 (MOLT-4 leukemia): 6.48 µM | TGI (MOLT-4 leukemia): 23.3 µM | GI50 (PC-3 prostate): 4.09 µM | TGI (PC-3 prostate): 9.8 µM | GI50 (UACC-62 melanoma): 4.69 µM | TGI (UACC-62 melanoma): 9.48 µM
